Data as given in paper PMC9963009, “Investigation of the Protective Effect for GcMAF by a Glycosidase Inhibitor and the Glycan Structure of Gc Protein” (Molecules, 2023).

Target: T1, α-N-acetylgalactosaminidase (α-GalNAc-ase) from chicken liver (Gallus gallus, UniProt Q90744)
T1 construct: gene NAGA; commercial enzyme from chicken liver
T1 sequence (Q90744 1-405): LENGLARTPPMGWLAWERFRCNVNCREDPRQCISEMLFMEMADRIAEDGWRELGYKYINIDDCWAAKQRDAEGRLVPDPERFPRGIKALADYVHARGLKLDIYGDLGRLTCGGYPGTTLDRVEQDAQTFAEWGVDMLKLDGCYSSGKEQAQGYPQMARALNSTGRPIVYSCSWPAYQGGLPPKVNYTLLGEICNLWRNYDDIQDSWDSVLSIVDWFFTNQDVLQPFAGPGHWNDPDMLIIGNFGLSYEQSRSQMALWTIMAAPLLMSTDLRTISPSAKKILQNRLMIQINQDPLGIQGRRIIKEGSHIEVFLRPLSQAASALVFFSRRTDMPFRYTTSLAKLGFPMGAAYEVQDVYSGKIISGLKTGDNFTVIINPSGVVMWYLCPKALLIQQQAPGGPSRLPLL
Assay: LC-MS of Gc protein glycopeptides after treatment with a mix of three glycosidases with/without […] inhibitor
Type: biochemical

OCC1NC(CNCCc2ccccc2)C(O)C1O (stereo not shown) [iminocyclitol, 2-Hydroxymethyl-5-(phenethylaminomethyl)-pyrrolidine-3,4-diol]
LC-MS of Gc protein glycopeptides after treatment with a mix of three glycosidas: the inhibitory activity of iminocyclitol against α-GalNAc-ase was also observed (Figure 4c)
